Data published in patent EP0348713A1, “(R,S)-3-(4-phenyl-1-piperazinyl)-1,2-propanediol salts” (DOTT. FORMENTI S.P.A. INDUSTRIA CHIMICA E FARMACEUTICA, priority 1988, dated 1990).
Where a name gives a salt, the structure may show the parent alone.

Experiment: colour stability in pharmaceutical formulations (undesired colors due to degradation products)
Type: physicochemical
Conditions: particularly suppositories
Source text: Said colors, due to degradation products, are evidenced also when using the hydrochloride, whereas they are completely removed when a salt according to the invention is used.

SMILES: OCC(O)CN1CCN(c2ccccc2)CC1 (stereo not shown) [hydrochloride]
- undesired colors occuring in the long run: evidenced
